Experimental data from article PMC7312485, “Lessons on the Sigma-1 Receptor in TNBS-Induced Rat Colitis: Modulation of the UCHL-1, IL-6 Pathway” (International Journal of Molecular Sciences, 2020).

How the values were obtained:
UCHL-1 = assay: Western blot of UCHL-1 expression in colon, TNBS colitis; type: in vivo, rat; conditions: FLV 1 mg/kg i.c.; TNBS group 1.23 ± 0.16
Procedure: (§1) Male Wistar–Harlan rats (225–250 g) were purchased from Toxicoop Ltd. (Dunakeszi, Hungary) and housed in a room with acclimatized temperature under 12h day/night cycles with food and water ad libitum. Animals were randomly divided into 3 groups: absolute control (no treatment, n = 12), 50% EtOH (ethanol enema, n = 12), and TNBS (10 mg dissolved in 50% Ethanol, n = 85). Colitis was assessed following Morris’ method. Animals fasted overnight and a TNBS enema was administered intracolonically (i.c.) with an 8cm long polyethylene canulla through the anus under mild anesthesia (Thiopental, i.p. 40 mg/kg). […]
(§2) In total, 30 mg from each powdered sample was measured and suspended in RIPA buffer (Merck Millipore, Burlington, MA, USA) supplemented with phenylmethylsulfonyl fluoride (PMSF) (Sigma-Aldrich, Budapest, Hungary); 1/10 of the final volume. […] The supernatant was collected and protein concentration was determined by using a Bradford assay and bovine serum albumin as a standard. […] Results were analyzed using Quantity One Software version 4.5 (Bio-Rad Laboratories, Hercules, CA, USA). […]

NF-κB p65 subunit = assay: Western blot of NF-κB p65 expression in colon, TNBS colitis; type: in vivo, rat; conditions: TNBS group 0.83 ± 0.09
Procedure: as §1, §2

eNOS = eNOS levels in colon by ELISA, TNBS colitis; type: in vivo, rat; conditions: FLV 1 mg/kg i.c.; TNBS group 2.62 ± 0.126
Procedure: as §1
(§3) To determine the tissue levels of IL-6 and eNOS in the colon, we used double-antibody sandwich ELISA kits specific for rat IL-6 or eNOS. eNOS kit was purchased from MyBioSource (MBS721860; San Diego, CA, USA) and IL-6 was purchased from GenAsia Biotech Co., Ltd. (Shanghai, China). […] Parameters were measured according to the manufacturer’s instructions and protocols, and optical densities (OD) were assayed at λ = 450 nm. […]

HMGB1 = assay: Western blot of HMGB1 expression in colon, TNBS colitis; type: in vivo, rat; conditions: TNBS group 1.75 ± 0.165
Procedure: as §1, §2

TNBS-induced rat colitis = assay: Severity of inflammation (macroscopic lesion area by planimetry) in TNBS-induced colitis; type: in vivo; conditions: TNBS group 61.68 ± […]
Procedure: (§4) Animals were randomly divided into 3 groups: absolute control (no treatment, n = 12), 50% EtOH (ethanol enema, n = 12), and TNBS (10 mg dissolved in 50% Ethanol, n = 85). Colitis was assessed following Morris’ method. Animals fasted overnight and a TNBS enema was administered intracolonically (i.c.) with an 8cm long polyethylene canulla through the anus under mild anesthesia (Thiopental, i.p. 40 mg/kg). […] Animals were fasted for 5 h each day before i.c. treatments.
(§5) After 72 h of TNBS administration, euthanized animals (Thiopental, i.p. 100 mg/kg) were sacrificed and the last 8 cm portion of the colon was removed, gently opened, rinsed in physiological saline and photographed for further macroscopic analysis. Then, the colon segments were frozen in liquid nitrogen. Frozen colon tissues were powdered in liquid nitrogen by using a porcelain mortar and pestle and kept at −80 °C until used for biochemical measurements.
The extent of macroscopically apparent inflammation, ulceration and tissue disruption was determined in a randomized manner from the colored images, using proprietary computerized planimetry software which was developed in our laboratory (Stat_2_1_1, Szeged, Hungary) and is based on planimetrics. The area of macroscopically visible mucosal damage was calculated and expressed as a % of the total studied 8 cm colonic segment.

IL-6 = IL-6 levels in colon by ELISA, TNBS colitis; type: in vivo, rat
Procedure: as §1, §3

sigma-1 receptor (σ1R) [1] = assay: Western blot of sigma-1 receptor expression in colon, TNBS colitis; type: in vivo, rat
Procedure: as §1, §2

[2] = tested on: myeloperoxidase enzyme (MPO); assay: Myeloperoxidase activity in colon, TNBS colitis; type: in vivo, rat
Procedure: as §4, §5
To further break the membranes, three freeze–thaw cycles were applied in liquid nitrogen and a 37 °C water bath. Homogenates then were centrifuged at 10,000× g for 15 min at 4 °C. […] The reaction was started with the addition of 10 µL 0.03% hydrogen peroxide (H2O2). After shaking for 90 s, MPO activity was assayed spectrophotometrically at 490 nm (Benchmark Microplate Reader, Bio-Rad Laboratories, Hercules, CA, USA). MPO activity was expressed as uU/mg protein.

iNOS = assay: Western blot of iNOS expression in colon, TNBS colitis; type: in vivo, rat
Procedure: as §1, §2

[3] = tested on: heme oxygenase enzyme (HO); assay: Heme oxygenase activity (bilirubin formation) in colon, TNBS colitis; type: in vivo, rat; conditions: TNBS group 0.26 ± 0.03
Procedure: as §4, §5

sigma-1 receptor (σ1R) [4] = molecular target: T1, sigma-1 receptor (σ1R) (Rattus norvegicus, UniProt Q9R0C9); assay: [3H](+)-pentazocine saturation binding in rat colon membranes; conditions: TNBS-induced colitis rat colon membranes after 1 mg/kg FLV administration (TNBS + FLV)
T1 construct: from tissue; host or cells: rat colon membrane homogenate (male Wistar–Harlan rats; control, TNBS, 50% EtOH, TNBS + FLV treated)
Procedure: The homogenate was centrifuged at 17,000× g for 10 min (4 °C).
The incubation was terminated by diluting the samples with an ice-cold wash buffer (50 mM of Tris–HCl, pH 8.0), followed by repeated washing and rapid filtration through Whatman GF/B glass fiber filters (Whatman Ltd., Maidstone, UK) presoaked with 0.1% polyethyleneimine. Filtration was performed with a 24-well Brandel Cell Harvester (Gaithersburg, MD, USA). Filters were air-dried and immersed into Ultima Gold MV scintillation cocktail, and then radioactivity was measured with a TRI-CARB 2100TR liquid scintillation analyzer (Packard, Perkin Elmer, Waltham, MA, USA).
All data are presented as mean ± SEM. […] In competition binding studies, the inhibitory constants (Ki) were calculated from the inflection points of the displacement curves using nonlinear least-square curve fitting and the Cheng–Prusoff equation, Ki = EC50/(1 + [ligand]/Kd).

T1 sequence (Q9R0C9 whole entry): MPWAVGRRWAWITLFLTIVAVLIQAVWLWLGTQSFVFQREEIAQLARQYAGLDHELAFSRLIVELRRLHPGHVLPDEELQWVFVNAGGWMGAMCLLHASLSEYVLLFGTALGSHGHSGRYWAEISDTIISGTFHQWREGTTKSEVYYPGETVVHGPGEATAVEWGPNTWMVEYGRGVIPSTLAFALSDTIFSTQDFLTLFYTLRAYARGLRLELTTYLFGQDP

COCCCC/C(=N\OCCN)c1ccc(C(F)(F)F)cc1 [FLV, Fluvoxamine]
UCHL-1 expression (normalized to β-actin) (UCHL-1): 2.104 ± 0.13 relative expression | NF-κB p65 subunit expression (normalized to β-actin) (NF-κB p65 subunit; FLV 1 mg/kg i.c.): 0.52 ± 0.04 relative expression | eNOS levels (eNOS): 4.21 ± 0.66 relative expression | HMGB1 expression (normalized to β-actin) (HMGB1; FLV 1 mg/kg i.c.): 1.264 ± 0.07 relative expressions | Severity of inflammation (area of mucosal damage, % of 8 cm colonic segment) (TNBS-induced rat colitis; 0.1 mg/kg FLV i.c. once a day, 72 h after TNBS): 41.23 ± 5.76% | Severity of inflammation (area of mucosal damage, % of 8 cm colonic segment) (TNBS-induced rat colitis; 1 mg/kg i.c. once a day, 72 h after TNBS): 28.29 ± 2.53% | IL-6 levels in colon (IL-6; FLV 1 mg/kg i.c., TNBS group 60.48 ± 4.55): 30.53 ± 4.10 ng/L | σ1R expression (normalized to β-actin) (sigma-1 receptor (σ1R) [1]; FLV 1 mg/kg i.c., TNBS group 0.326 ± 0.05): 0.72 ± 0.083 relative expression | MPO activity ([2]; FLV 1 mg/kg i.c., TNBS group 42653.4 ± 3220.24): 25021.2 ± 2554.66 uU/mg protein | iNOS expression (normalized to β-actin) (iNOS; FLV 1 mg/kg i.c., TNBS group 0.53 ± 0.02): 0.255 ± 0.11 relative expression | HO enzyme activity ([3]; FLV 1 mg/kg i.c.): 0.40 ± 0.03 nmol bilirubin/h/mg protein | Bmax ± S.E.M., saturation binding (σ1R density) (sigma-1 receptor (σ1R) [4]): 134 ± 14 fmol/mg

CN1CCN(CCc2ccc(Cl)c(Cl)c2)CC1 [BD1063]
NF-κB p65 subunit expression (normalized to β-actin) (NF-κB p65 subunit; BD1063 0.1 mg/kg i.c.): 0.48 ± 0.03 relative expression | HMGB1 expression (normalized to β-actin) (HMGB1; BD1063 0.1 mg/kg i.c.): 1.305 ± 0.044 relative expressions | Severity of inflammation (area of mucosal damage, % of 8 cm colonic segment) (TNBS-induced rat colitis; 0.1 mg/kg BD1063 i.c. once a day): 76.77 ± 2.52% | IL-6 levels vs. TNBS group (IL-6; BD1063 0.1 mg/kg i.c.): didn’t affect IL-6 levels | σ1R expression vs. TNBS group (sigma-1 receptor (σ1R) [1]; BD1063 0.1 mg/kg i.c.): didn’t affect the expression of the receptor | MPO activity vs. TNBS group ([2]; BD1063 0.1 mg/kg i.c.): didn’t affect the activity of the MPO | iNOS expression vs. TNBS group (iNOS; BD1063 0.1 mg/kg i.c.): did not alter the expression of iNOS | HO enzyme activity ([3]; BD1063 0.1 mg/kg i.c.): 0.40 ± 0.04 nmol bilirubin/h/mg protein

O=C(O)c1cc(/N=N/c2ccc(S(=O)(=O)Nc3ccccn3)cc2)ccc1O [SASP, Sulfasalazine]
Severity of inflammation (area of mucosal damage, % of 8 cm colonic segment) (TNBS-induced rat colitis; positive control, 2 × 25 mg/kg per os): 35.78 ± 2.83%
